Data published in patent US12084680B2, “Methods for efficient derivation of human motor neurons from diverse spinal regions” (Wisconsin Alumni Research Foundation, priority 2016, dated 2024).

Assays:
[1] = tested on: H9 hESCs; assay: OLIG2 induction in thoracic and lumbar neuroectoderm at various day 5 reseed densities; assay type: cell-based, human; details: for PAX6+/OLIG2+ cells: reseed 1.5×10^5 cells/cm^2
Excerpt: However, OLIG2 induction was less efficient upon employing the standard deterministic HOX patterning protocol to generate thoracic and lumbar neuromesoderm followed by a CHIR boost and application of RA and SHH/PM (FIG. 6A). Only 11±2% and 67±9% of the cells in the thoracic and lumbar cultures, respectively, were PAX6^+/OLIG2^+ (FIGS. 6B-6C). We noted that our standard neuromesodermal protocol always used a reseed density of 1.5×10^5 cells/cm^2, which generates a relatively confluent but not tightly packed cell monolayer 24 h after seeding. Having previously determined that cell density and cell-cell contacts can serve as modulators of neural fate, we explored the effects of seeding density on OLIG2 induction.
hESCs were dissociated with accutase (Thermo Fisher Scientific) and reseeded at 1×10^5 cells/cm2 in E8 medium containing 10 μM ROCK inhibitor (Y27632; R&D Systems) on 6-well polystyrene tissue culture plates coated with 100 μg/mL poly-L-ornithine (PLO; Sigma) and 8 μg/well VTN-NC. The timelines and relevant growth factors/small molecules for all differentiation procedures are described in detail in the Results section and its accompanying figures. Cells were differentiated for various amounts of time in E6 medium containing the same insulin concentration as E8 medium as described above with varying combinations of soluble factors (product information and concentration ranges are found in Table 2). For neuromesodermal induction and HOX propagation, cells were sequentially cultured with FGF8b, CHIR99021 (CHIR), GDF11, and dorsomorphin (DM) as previously described. Briefly, to initiate the neuromesodermal state, cells were changed to E6 medium followed by addition of FGF8b (200 ng/ml) 24 h later. To generate cervical neuromesodermal progenitors, cells were washed with PBS, treated with accutase, and re-seeded in E6 medium containing 200 ng/ml FGF8b, 3 μM CHIR, and 10 μM Y27632 on VTN-NC-coated plates at a density of 1.5×10^5 cells/cm^2 for 48 h. To generate thoracic neuromesodermal progenitors, cells were passaged again after 72 h of CHIR treatment and re-seeded at different densities as described in the text.
Thoracic identity was reached after an additional 24 h. Then, to reach the lumbosacral level, cells were given 30 ng/ml GDF11 and 1 μM DM for an additional 48 h. For neuroectoderm induction and generation of OLIG2^+ progenitors, FGF8b was removed at the designated time points and the concentration of CHIR was increased for 6 h as described in the text, followed by a transition to media containing RA, PM, and SHH for a period of 48 h. For differentiation of the OLIG2^+ progenitors to motor neurons, cells were subcultured by en bloc passage using a cell scraper, reseeded at a 1:200 ratio in Matrigel-coated 8-well chamber slides, and differentiated for 14 days in E6 medium containing 1 μM RA, 100 nM PM, and 100 ng/mL SHH, with media exchange every 3 days (10 μM Y27632 was included during the en bloc passaging step and removed after the first media exchange). For differentiation of lumbar cultures, 1 μM DM was included in all steps. For the myoblast co-culture experiments, OLIG2^+ cultures were en bloc passaged, frozen in E6 medium containing 10% DMSO, shipped to a different location, and thawed 1:10 in 6-well plates under the same conditions as described in FIG. 5. To facilitate neuronal maturation prior to myoblast co-culture, 5 μM DAPT (Tocris) was added from days 8-14 post-thaw. Flow cytometry, RT-PCR, and qPCR (RPS18 and CTNNB1 Taqman primers from Thermo Fisher Scientific) were conducted as previously described.

[2] = tested on: GLI1, GLI2, GLI3; assay: qPCR of GLI transcription factors in day 6 cultures; assay type: cell-based, human; details: 6 μM CHIR maintained during RA and PM/SHH exposure, day 6, versus 0 μM CHIR
Description: To begin, we sequentially differentiated H9 hESCs in E6 media for 1 day, and FGF8b (200 ng/mL) for 1 day, and FGF8b and CHIR (3 μM) for 2 days to generate cervical neuromesoderm (FIGS. 5A-5B). Then, we screened the effects of CHIR, PM, and SHH treatment on NKX6.1^+/PAX6^+/OLIG2^+ motor neuron progenitor induction while transitioning to media containing 1 μM RA (FIGS. 5A-5D). Prior to the addition of RA, NKX6.1 was expressed in the cervical neuromesodermal state at day 4 (80±18% NKX6.1^+; data not shown), likely due to the CHIR-induced Wnt/β-catenin signaling (FIGS. 4A-4H). Transitioning the neuromesodermal progenitors to RA-containing media for 2 days induced HOXB4^+/HOXC6^+/HOXC9^−/HOXD10^−/PAX6^+ cervical neuroectoderm in all conditions (FIGS. 5B-5C), as expected. However, without co-activation of SHH signaling by PM or SHH, NKX6.1 expression was quickly lost by day 6 (97±1% PAX6^+, 17±3% NKX6.1^+) (FIG. 5C). […] To bolster this claim, we also analyzed the abundance of full-length GLI3 versus its truncated repressor form by western blot. […] Thus, Wnt/β-catenin signaling is necessary to induce ventral identity, but its continuous activation during OLIG2 induction by SHH signaling is detrimental to motor neuron differentiation, possibly due to activation of the GLI3 repressor.
Thoracic identity was reached after an additional 24 h. Then, to reach the lumbosacral level, cells were given 30 ng/ml GDF11 and 1 μM DM for an additional 48 h. For neuroectoderm induction and generation of OLIG2^+ progenitors, FGF8b was removed at the designated time points and the concentration of CHIR was increased for 6 h as described in the text, followed by a transition to media containing RA, PM, and SHH for a period of 48 h. […]

## Cc1c[nH]c(-c2cnc(NCCNc3ccc(C#N)cn3)nc2-c2ccc(Cl)cc2Cl)n1 [CHIR, CHIR99021]
[1]; lumbar culture, CHIR boost then RA and SHH/PM
  PAX6+/OLIG2+ cells: 67±9%
[1]; lumbar neuroectoderm, reseed 4×10^5 cells/cm^2, with dorsomorphin, CHIR boost then RA and SHH/PM
  OLIG2+ cells: 82±3%
[1]; thoracic culture, CHIR boost then RA and SHH/PM
  PAX6+/OLIG2+ cells: 11±2%
[1]; thoracic neuroectoderm, day 5 reseed 1×10^5 cells/cm^2, CHIR boost then RA and SHH/PM
  OLIG2+ cells: 19±5%
[1]; thoracic neuroectoderm, day 5 reseed 2×10^5 cells/cm^2, CHIR boost then RA and SHH/PM
  OLIG2+ cells: 48±3%
[1]; thoracic neuroectoderm, day 5 reseed 4×10^5 cells/cm^2, CHIR boost then RA and SHH/PM
  OLIG2+ cells: 80±3%
[2]
  decrease in GLI1 expression (qPCR): > 8 fold
  decrease in GLI2 expression (qPCR): > 4 fold
  increase in GLI3 expression (qPCR): ~2 fold
